According to ChEMBL document CHEMBL3044789, “Comparing weed and crop seedling response to pre-emergence pendimethalin application in Corchorus olitorius and Abelmoschus esculentus” (Crop Prot, 2006):

Tests used:
[1] = test system: Abelmoschus esculentus; assay: Phytotoxicity in Abelmoschus esculentus assessed as seed germination at 0.33 kg a.i/ha applied as solution after 7 weeks (reference value: 85.7 +/- 0.36 %); format: organism-based; conditions: in vivo, other, 1176 h
[2] = test system: Asteraceae; assay: Herbicidal activity against Aspilia africana in Corchorus olitorius plots assessed as weed cover at 0.66 kg a.i/ha after 2 weeks (reference value: 81.7 +/- 0.43 %); format: functional
[3] = test system: Corchorus olitorius; assay: Phytotoxicity in Corchorus olitorius assessed as seedling injury at 0.99 kg a.i/ha applied as solution after 7 weeks relative to control; format: organism-based; conditions: in vivo, other, 1176 h
[4] = test system: Corchorus olitorius; assay: Phytotoxicity in Corchorus olitorius assessed as seed germination at 1.32 kg a.i/ha applied as solution after 7 weeks relative to untreated control; format: organism-based; conditions: in vivo, other, 1176 h
[5] = test system: Corchorus olitorius; assay: Phytotoxicity in Corchorus olitorius assessed as seedling injury at 0.33 kg a.i/ha applied as solution after 7 weeks relative to control; format: organism-based; conditions: in vivo, other, 1176 h
[6] = test system: Euphorbia heterophylla; assay: Herbicidal activity against Euphorbia heterophylla in Abelmoschus esculentus plots assessed as weed cover at 0.99 kg a.i/ha after 7 weeks (reference value: 14.7 +/- 0.46 %); format: functional
[7] = test system: Commelina diffusa; assay: Herbicidal activity against Commelina diffusa in Corchorus olitorius plots assessed as weed cover at 0.66 kg a.i/ha after 7 weeks (reference value: 1.7 +/- 0.56 %); format: functional
[8] = test system: Corchorus olitorius; assay: Phytotoxicity in Corchorus olitorius assessed as root length at 0.99 kg a.i/ha treated to soil after 7 weeks (reference value: 16.9 +/- 0.09 mm); format: organism-based; conditions: in vivo, other, 1176 h
[9] = test system: Commelina diffusa; assay: Herbicidal activity against Commelina diffusa in Abelmoschus esculentus plots assessed as weed cover at 0.66 kg a.i/ha after 7 weeks (reference value: 14.7 +/- 0.46 %); format: functional
[10] = test system: Cyperus rotundus; assay: Herbicidal activity against Cyperus rotundus in Abelmoschus esculentus plots assessed as weed cover at 0.66 kg a.i/ha after 7 weeks (reference value: 14.7 +/- 0.46 %); format: functional
[11] = test system: Talinum fruticosum; assay: Herbicidal activity against Talinum fruticosum in Corchorus olitorius plots assessed as weed cover at 0.99 kg a.i/ha after 4 weeks (reference value: 20.1+/- 0.57 %); format: functional
[12] = test system: Commelina diffusa; assay: Herbicidal activity against Commelina diffusa in Corchorus olitorius plots assessed as minor weed growth at 0.66 kg a.i/ha after 2 weeks; format: functional
[13] = test system: Talinum fruticosum; assay: Herbicidal activity against Talinum fruticosum in Abelmoschus esculentus plots assessed as weed cover at 0.99 kg a.i/ha after 2 weeks (reference value: 63.5 +/- 0.29 %); format: functional
[14] = test system: Abelmoschus esculentus; assay: Phytotoxicity in Abelmoschus esculentus assessed as seed germination at 0.99 kg a.i/ha applied as solution after 7 weeks (reference value: 85.7 +/- 0.36 %); format: organism-based; conditions: in vivo, other, 1176 h
[15] = test system: Synedrella nodiflora; assay: Herbicidal activity against Synedrella nodiflora in Corchorus olitorius plots assessed as weed recovery at 0.99 kg a.i/ha after 2 weeks (reference value: 78.3 +/- 0.74 %); format: functional
[16] = test system: Synedrella nodiflora; assay: Herbicidal activity against Synedrella nodiflora in Corchorus olitorius plots assessed as weed recovery at 0.33 kg a.i/ha after 2 weeks (reference value: 78.3 +/- 0.74 %); format: functional
[17] = test system: Calopogonium mucunoides; assay: Herbicidal activity against Calopogonium mucunoides in Abelmoschus esculentus plots assessed as weed cover at 0.99 kg a.i/ha after 4 weeks (reference value: 22.6 +/- 0.49 %); format: functional
[18] = test system: Calopogonium mucunoides; assay: Herbicidal activity against Calopogonium mucunoides in Abelmoschus esculentus plots assessed as weed cover at 0.33 kg a.i/ha after 2 weeks (reference value: 63.5 +/- 0.29 %); format: functional
[19] = test system: Euphorbia heterophylla; assay: Herbicidal activity against Euphorbia heterophylla in Corchorus olitorius plots assessed as weed cover at 0.33 kg a.i/ha after 2 weeks (reference value: 81.7 +/- 0.43 %); format: functional
[20] = test system: Corchorus olitorius; assay: Phytotoxicity in Corchorus olitorius assessed as root length at 0.66 kg a.i/ha treated to soil after 7 weeks (reference value: 16.9 +/- 0.09 mm); format: organism-based; conditions: in vivo, other, 1176 h
[21] = test system: Euphorbia heterophylla; assay: Herbicidal activity against Euphorbia heterophylla in Corchorus olitorius plots assessed as weed recovery at 0.99 kg a.i/ha after 2 weeks (reference value: 78.3 +/- 0.74 %); format: functional
[22] = test system: Euphorbia heterophylla; assay: Herbicidal activity against Euphorbia heterophylla in Abelmoschus esculentus plots assessed as weed cover at 1.32 kg a.i/ha after 4 weeks (reference value: 22.6 +/- 0.49 %); format: functional
[23] = test system: Abelmoschus esculentus; assay: Phytotoxicity in Abelmoschus esculentus assessed as root length at 1.32 kg a.i/ha treated to soil after 7 weeks (reference value: 2.9 +/- 0.45 mm); format: organism-based; conditions: in vivo, other, 1176 h
[24] = test system: Synedrella nodiflora; assay: Herbicidal activity against Synedrella nodiflora in Corchorus olitorius plots assessed as major weed growth at 0.33 kg a.i/ha after 2 weeks; format: functional
[25] = test system: Corchorus olitorius; assay: Phytotoxicity in Corchorus olitorius assessed as shoot length at 1.32 kg a.i/ha treated to soil after 7 weeks (reference value: 23.7 +/- 0.10 mm); format: organism-based; conditions: in vivo, other, 1176 h
[26] = test system: Cyperus rotundus; assay: Herbicidal activity against Cyperus rotundus in Corchorus olitorius plots assessed as weed recovery at 0.66 kg a.i/ha after 2 weeks (reference value: 78.3 +/- 0.74 %); format: functional
[27] = test system: Euphorbia heterophylla; assay: Herbicidal activity against Euphorbia heterophylla in Abelmoschus esculentus plots assessed as weed recovery at 0.99 kg a.i/ha after 2 weeks (reference value: 60.1 +/- 0.46 %); format: functional
[28] = test system: Chromolaena odorata; assay: Herbicidal activity against Chromolaena odorata in Corchorus olitorius plots assessed as weed cover at 0.99 kg a.i/ha after 4 weeks (reference value: 20.1+/- 0.57 %); format: functional
[29] = test system: Euphorbia heterophylla; assay: Herbicidal activity against Euphorbia heterophylla in Abelmoschus esculentus plots assessed as weed cover at 0.33 kg a.i/ha after 7 weeks (reference value: 14.7 +/- 0.46 %); format: functional
[30] = test system: Euphorbia heterophylla; assay: Herbicidal activity against Euphorbia heterophylla in Corchorus olitorius plots assessed as weed cover at 0.66 kg a.i/ha after 7 weeks (reference value: 1.7 +/- 0.56 %); format: functional
[31] = test system: Synedrella nodiflora; assay: Herbicidal activity against Synedrella nodiflora form in Abelmoschus esculentus plots assessed as minor weed growth at 0.66 kg a.i/ha after 2 weeks; format: functional
[32] = test system: Corchorus olitorius; assay: Phytotoxicity in Corchorus olitorius assessed as shoot length at 0.66 kg a.i/ha treated to soil after 7 weeks (reference value: 23.7 +/- 0.10 mm); format: organism-based; conditions: in vivo, other, 1176 h
[33] = test system: Euphorbia heterophylla; assay: Herbicidal activity against Euphorbia heterophylla in Corchorus olitorius plots assessed as weed cover at 1.32 kg a.i/ha after 7 weeks (reference value: 1.7 +/- 0.56 %); format: functional
[34] = test system: Abelmoschus esculentus; assay: Phytotoxicity in Abelmoschus esculentus assessed as seedling injury at 0.33 kg a.i/ha applied as solution after 7 weeks relative to control; format: organism-based; conditions: in vivo, other, 1176 h
[35] = test system: Corchorus olitorius; assay: Phytotoxicity in Corchorus olitorius assessed as root length at 1.32 kg a.i/ha treated to soil after 7 weeks (reference value: 16.9 +/- 0.09 mm); format: organism-based; conditions: in vivo, other, 1176 h
[36] = test system: Euphorbia heterophylla; assay: Herbicidal activity against Euphorbia heterophylla in Corchorus olitorius plots assessed as weed cover at 0.66 kg a.i/ha after 2 weeks (reference value: 81.7 +/- 0.43 %); format: functional

## CCC(CC)Nc1c([N+](=O)[O-])cc(C)c(C)c1[N+](=O)[O-] [PENDIMETHALIN]
[1]
  Activity: 52.7%
[2]
  Activity: 51.7%
[3]
  Activity: 46.7%
[4]
  Activity: 68.3%
[5]
  Activity: 18.3%
[6]
  Activity: 83.9%
[7]
  Activity: 100%
[8]
  Activity: 16.4 mm
[9]
  Activity: 90%
[10]
  Activity: 90%
[11]
  Activity: 48.3%
[12]
  Activity: 1 /m2
[13]
  Activity: 47.9%
[14]
  Activity: 41.1%
[15]
  Activity: 21.7%
[16]
  Activity: 31.7%
[17]
  Activity: 39.2%
[18]
  Activity: 56.8%
[19]
  Activity: 63.3%
[20]
  Activity: 13.7 mm
[21]
  Activity: 21.7%
[22]
  Activity: 36.2%
[23]
  Activity: 1.5 mm
[24]
  Activity: 31 /m2
[25]
  Activity: 19.4 mm
[26]
  Activity: 33.3%
[27]
  Activity: 36.2%
[28]
  Activity: 48.3%
[29]
  Activity: 90%
[30]
  Activity: 100%
[31]
  Activity: 1 /m2
[32]
  Activity: 20.8 mm
[33]
  Activity: 95%
[34]
  Activity: 29.9%
[35]
  Activity: 14.7 mm
[36]
  Activity: 51.7%
